Test system: Peripheral Blood Mononuclear Cells (PBMC)
Experiment: MitoSOX mitochondrial ROS assay (flow cytometry) in PBMCs of treated mice
Format: in vivo, mouse
Settings: R6/2 mice, 0.5 mg/kg / 5 mg/kg i.p. QD, PBMCs collected at 13 weeks of age
Protocol: Euthanasia & Sample Collection—At 13 weeks of age, 9 mice per group were euthanized by deep anesthesia with sodium pentobarbital (180 mg/kg). The remaining mice were euthanized and any samples were not collected, except the tail and ear samples. A terminal blood sample (as much as possible) was collected by cardiac puncture into a syringe. The whole blood was placed in Li-Hep tube at RT and used immediately for preparation of PBMCs. The whole brain was collected and fresh frozen in liquid nitrogen and stored at −80° C. Blood was collected also from extra animals as staining controls for the flow cytometry assays (n=3 extra animals per day). Tail and ear samples were collected for possible post-study re-genotype analysis. […] Right before measurement 1 μL of propidium iodide was added and the cell number and viability was determined by MACSquant Analyzer 10 flow cytometer. […] The cells were analyzed immediately after the staining using the MACSQuant Analyzer 10 (Miltenyi Biotec) and Cytation 3 (Cell titerglow). […] Oxidation of MitoSOX™ Red reagent by superoxide produces red fluorescence and can be used to reliably the relative differences in mitochondrial ROS formation in cells. […] Concentrations exceeding 5 μM can produce cytotoxic effects, including altered mitochondrial morphology and redistribution of fluorescence to nuclei and the cytosol. • 2. […]

Compound: Cc1cc(O)cc(C)c1C[C@H](NC(=O)[C@H](N)CCCNC(=N)N)C(=O)N[C@@H](CCCCN)c1nc(Cc2ccccc2)no1.Cl.Cl [Compound (Ia), (R)-2-amino-N—((S)-1-(((S)-5-amino-1-(3-benzyl-1,2,4-oxadiazol-5-yl)pentyl)amino)-3-(4-hydroxy-2,6-dimethylphenyl)-1-oxopropan-2-yl)-5-guanidinopentanamide]
- mitochondrial ROS formation (MitoSOX) in PBMCs, R6/2+Vehicle vs treated R6/2: no significant differences
